According to patent publication US20200206187A1, “SCREENING PLATFORM TO IDENTIFY THERAPEUTIC DRUGS OR AGENTS FOR TREATMENT OF ALZHEIMER'S DISEASE” (priority 2017, published 2020):
Entries after “also recorded” stand apart in the source; their conditions may differ.

How the values were obtained:
Format in all cases: cell-based, murine
[1] = test system: naïve BV2 microglial cells; test: LDH toxicity assay (CytoTox-ONE) on naïve BV2 microglial cells; conditions: 5 hours of treatment (FIG. 1)
Method: (§1) As shown in the figures, compounds were selected and tested in microglial and 3D AD cell culture models at a range of concentrations, and over a period of time ranging from hours to days. The culture models were chosen to elucidate different stages and biological aspects of Alzheimer's disease. The toxicity of the compounds was assessed analyzing the cultures media with the commercially available assay (CytoTox-ONE™, Promega) that measures the release of LDH. Toxic concentrations were excluded from further testing. For microglial cultures, Aβ42 and Aβ40 uptake assays were carried forward for 2 to 24 hours following 3 hours of compound pre-treatment. The experimental outcomes were determined by measuring increased internalized Aβ42 and Aβ40 levels by a commercially available ELISA assay (Wako Abeta42 ELISA kit). Alternatively, LPS-activation assays were carried forward for 3 h following 3 hours of compound pre-treatment. The reduction of toxic cytokines released in the culture media was monitored.
(§2) Naïve BV2 Cells, or BV2 stably expressing wt-CD33, were seeded in 24-well plates at the density of 2.5×10E5 cells for BV2 and 4×10E5 cells for wt-CD33 clone, in proliferating media. On the following day, cells were treated with compounds, or DMSO as a control, at different concentrations in proliferating media for 3 hours. For Abeta42 and Abeta40 uptake assays, cells were washed twice with 500 μL/well of PBS and treated with compounds/DMSO in the presence of 300 nM Abeta peptide in DMEM media for 2 hours. At the end of the 2 hour incubation, 150 μL of media were collected from the 24-well plates. They were centrifuged at 4° C., 2500 rpm for 10 min, transferred to new plates and used to assess compounds toxicity with CytoTox-ONE™ (LDH) assay. […] Protein concentrations in the lysate supernatants were determined with the Pierce™ BCA protein assay kit. 2-3 μg/well of protein from the lysates was analyzed for Abeta42 uptake using the Wako Abeta42 ELISA kit. […]

[2] = test system: wtCD33-expressing microglial cells; test: LDH toxicity assay (CytoTox-ONE) on wtCD33-expressing microglial cells; conditions: 5 hours of treatment (FIG. 2)
Method: as §1, §2

[3] = test system: naïve BV2 microglial cells; test: Abeta42 uptake assay into naïve BV2 microglial cells (Wako Abeta42 ELISA); conditions: naïve BV2, 3 h pre-treatment, 300 nM Abeta42 for 2 h (FIG. 3)
Method: as §1
(§3) Naïve BV2 Cells, or BV2 stably expressing wt-CD33, were seeded in 24-well plates at the density of 2.5×10E5 cells for BV2 and 4×10E5 cells for wt-CD33 clone, in proliferating media. […] Protein concentrations in the lysate supernatants were determined with the Pierce™ BCA protein assay kit. 2-3 μg/well of protein from the lysates was analyzed for Abeta42 uptake using the Wako Abeta42 ELISA kit. […]

[4] = test system: wt-CD33 expressing BV2 cells; test: Abeta42 uptake assay into wt-CD33 expressing BV2 cells (Wako Abeta42 ELISA); conditions: wt-CD33 expressing BV2, 3 h pre-treatment, 300 nM Abeta42 for 2 h (FIG. 4)
Method: as §1, §3

[5] = test system: naïve BV2 microglial cells; test: Abeta40 uptake assay into naïve BV2 microglial cells (Cisbio Abeta40 HTRF); conditions: naïve BV2, 3 h pre-treatment, 300 nM Abeta40 for 2 h (FIG. 5)
Method: as §1, §3

[6] = test system: wt-CD33 expressing BV2 cells; test: Abeta40 uptake assay into wt-CD33 expressing BV2 cells (Cisbio Abeta40 HTRF); conditions: wt-CD33 expressing BV2, 3 h pre-treatment, 300 nM Abeta40 for 2 h (FIG. 6)
Method: as §1, §3

[7] = test system: LPS-activated BV2 microglial cells; test: BV2 LPS activation cytokine assay (MSD Proinflammatory Panel 1); conditions: BV2, 1 μg/mL LPS 3 h, maleate
Method: as §1
For microglial activation experiments, cells were treated with compounds/DMSO in the presence of 1 μg/mL LPS in proliferating media for 3 hours. The media was collected, cleared of particulate and analyzed using MSD Proinflammatory Panel 1 cytokine assay kit.
FIG. 7 tabulates the results from an LPS activation testing of microglial cells, showing that cytokines KC/GRO, IL-6, IL-10 and TNF-α were detectable upon LPS activation, although KC/GRO was only detectable in undiluted media. The 10 cytokines were simultaneously analyzed in microglial conditioned media. FIG. 8-15 show the results for an assay to test the effect of test compounds DMSO, 817MA, 817A11 and 614P on cytokines KC/GRO, IL-6, IL-10 and TNF-α. […] The two sequential assays determine which if any cytokines are detected upon LPS activation, followed by determination of the reduction in detectable cytokines upon treatment/exposure to a test compound.

[8] = test system: naïve BV2 microglial cells; test: LDH toxicity assay in microglial cells, 24-hour pre-treatment protocol; conditions: 24 h pre-treatment (FIG. 25)
Method: (§4) The protocol used for 24-hour pre-treatment testing in microglial cells was as follows.
(§5) On day zero the naïve BV2 microglial cells were seeded in proliferating media.
(§6) On day one the cells were then treated with 817MA, or DMSO as a control, in proliferating media for 24 hours, at concentrations ranging from 0 to 50 μM.
(§7) On day two the cells were then washed twice with PBS and treated with compounds/DMSO in the presence of 300 nM Abeta42 peptide in DMEM media for 2 hours. The compounds toxicity was assessed in the media collected at the end of the treatment with CytoTox-ONE™ (LDH) assay. The remaining cells were lysed with RIPA buffer supplemented with protease and phosphatase inhibitors. Protein concentrations were determined with the Pierce™ BCA protein assay kit. Normalized lysates were analyzed for Abeta42 uptake using the Wako Abeta42 ELISA kit.

[9] = test system: naïve BV2 microglial cells; test: Abeta42 uptake assay in microglial cells, 24-hour pre-treatment protocol
Method: as §4, §5, §6, §7

Row | SMILES | LDH toxicity [1] | LDH toxicity [2] | Abeta42 uptake EC50 (comparison between compounds) [3] | Abeta42 uptake EC50 (comparison between compounds) [4] | Abeta40 uptake EC50 (comparison between compounds) [5] | Abeta40 uptake EC50 (comparison between compounds) [6] | TNFα production upon LPS activation ([7]; first and second experiment (FIG. 8, 9)) | IL-6 production upon LPS activation ([7]; first and second experiment (FIG. 10, 11)) | IL-10 production upon LPS activation ([7]; first and second experiment (FIG. 12, 13)) | LDH toxicity compared to DMSO ([8]; at about 30 μM) | LDH toxicity ([8]; below about 50 μM) | EC50 ([9]; Mus musculus, BV-2, following 24 hours of compound pre-treatment (FIG. 26)) [µM] | Abeta42 uptake versus DMSO control ([9]; above about 1 μM, 24 h pre-treatment (FIG. 26))
1 | CS(=O)(=O)Nc1cc2occ(NC=O)c(=O)c2cc1Oc1ccccc1 [Compound 614P, N-(3-formamido-4-oxo-6-phenoxy-4H-chromen-7-yl)] | No statistically significant toxicity | No statistically significant toxicity | higher EC50 | higher EC50 | higher EC50 than both 817MA and 817A11 | higher EC50 than both 817MA and 817A11 | – | – | – | – | – | – | –
2 | O=C(CCOCCc1ccc2sccc2c1)N1CC(O)C1 [Compound 817A11, 1-{3-[2-(1-benzothiophen-5-yl)ethoxy]propionyl}azetidin-3-ol] | No statistically significant toxicity | No statistically significant toxicity | – | – | lower EC50 Abeta40 uptake than 817MA treated cells | lower EC50 Abeta40 uptake than 817MA treated cells | – | – | – | – | – | – | –
3 | O=C(O)/C=C\C(=O)O.OC1CN(CCCOCCc2ccc3sccc3c2)C1 [Compound 817MA, 1-(3-(2-(1-benzothiophen-5-yl)ethoxy)propyl)azetidin-3-ol maleate] | No statistically significant toxicity | No statistically significant toxicity | – | – | – | – | reduced concentrations; also recorded: only compound effectively reducing TNFα production | reduced concentrations; also recorded: most effective compound for reducing IL-6 production | reduced concentrations; also recorded: most effective compound for reducing IL-10 production | no statistically significant toxicity | low or no toxicity | ~20 | greater than the DMSO control
